The source of these data is patent publication US20200054646A1, “USE OF PHENOTHIAZINE DERIVATIVE IN THE TREATMENT OF INFECTIOUS PURPURA OR PURPURA FULMINANS” (priority 2016, published 2020).

The test system of assay [1] is Nm2C4.3 microcolonies on HBMEC. Nature of the assay: Dispersion of meningococcal microcolonies at the surface of infected human endothelial cells. The class given is cell-based, Neisseria meningitidis. The following applies: Cefotaxim 20 μg/ml. Here is the method:
Human […] microvascular endothelial cells (HBMEC) were infected with Nm2C4.3 for 1 h 30, treated with Trifluoperazine (10-40 μM) for 30 minutes, before fixation and immunofluorescence analysis using anti-Nm2C4.3 antibody and Alexa Fluor 633 Phalloidin. (A) Representative fluorescence microscopy showing bacterial colony (white dots) formed at the surface of the endothelial cells. (B) Quantification of the bacterial colonization was performed using Image J software.
HBMEC, a human endothelial cell line isolated from bone marrow capillaries (Schweitzer et al., 1997) were grown in Dulbecco's Modified Eagle Medium (DMEM) 4.5 g/L-Glutamax (ThermoFischer) 10% FBS. Cells were grown on Thermanox coverslips coated with gelatin 2% (BD Difco #214340) for 2 days to reach confluency. Cells were then infected with a suspension of Nm2C4.3 (˜10^7 CFU/ml) in DMEM/FBS during 30 minutes to allow bacterial adhesion. Cells were then washed three times with medium to remove non-adherent bacteria and infection was pursued for 1 h 30: adherent bacteria grew at the endothelial cell surface and formed micro-colonies. Trifluoperazine was then added to obtain final concentrations of 10, 20, 30 and 40 μM. After incubation for 30 minutes, cells were washed and fixed in 4% Paraformaldehyde for 10 min, washed three times with PBS, and permeabilized with 0.1% Triton X-100 in PBS for 10 min. Cells were blocked for 30 min with 3% BSA in PBS and were incubated for 2 h with the primary antibodies (Rabbit polyclonal anti-Nm2C4.3 strain, kindly provided by Dr X. Nassif, INEM, Paris). After three washes with PBS, cells were incubated for 1 h with […] anti-rabbit IgG (Jackson ImmunoResearch Laboratories), together with Alexa Fluor 633 Phalloidin (Thermofischer) and DAPI (0.5 mg ml-1, Sigma Aldrich) to stain Actin and nuclei, respectively. Labelled preparations were mounted in Glycergel media (DAKO) and image acquisitions were performed with a DM16000 microscope (Leica, X40). Quantification was done with ImageJ software (NIH). Results are presented as a vascular colonisation index corresponding to the area occupied by the fluorescently labelled bacteria per fields in relation to the area occupied by the fluorescently labelled human endothelial cells (Actin staining). Statistical analysis were performed with Student t test.

For assay [2], the system named is meningococcal colonization of the human dermal vasculature. Briefly: In vivo infection of mice engrafted with human skin. Conditions: cefotaxime treatment.
The subject of assay [3] is N. meningitidis 2C4.3 bacterial aggregates. Briefly: microbe, parasite or virus in culture. It is filed as cell-based, Neisseria meningitidis. Conditions: for effect on dispersion of meningococcal aggregates (in words): 0.5 to 80 μM, 30 min; for Concentration promoting efficient meningococcal dispersal (~80%): 30 min treatment, 0.5 to 80 μM tested; for EC80: Neisseria meningitidis, 0.5 h, read-out: Concentration promoting efficient meningococcal dispersal (~80%). How it is done: N. meningitidis 2C4.3 was grown in liquid culture at 10^7 CFU/ml for 2 h to form bacterial aggregates and were treated with increasing concentrations of Trifluoperazine (10 to 40 μM), Gentamicin (150 μg/ml) or cefotaxim (20 μg/ml) for 20 minutes and bacterial aggregates were immediately visualized using a phase-contrast microscope. […] (B) Quantification of the bacterial aggregation was performed using Image J software.
N. meningitidis 2C4.3 wild type strain and the isogenic derivative mutant PilT ([…]PilT) were grown in liquid culture at 10^7 CFU/ml for 2 h to form bacterial aggregates and then treated with 50 μM Trifluoperazine. Time lapse phase-contrast video microscopy was performed to visualize the effect on bacterial aggregates over time. Images were taken at the indicated time points of the video.
N. meningitidis 2C4.3 was grown in liquid culture at 10^7 CFU/ml for 2 h to form bacterial aggregates and were treated with 30 μM Trifluoperazine for 30 minutes to induce bacterial dispersion or PBS as a control. The medium was replaced to remove the Trifluoperazine and the reformation of bacterial aggregates were visualized overtime using a phase-contrast microscope.
FIG. 7. […] Bacteria were grown in suspension for 2 h then Phenothiazine derivatives were added at the indicated concentrations.
N. meninigitidis 2C4.3 strain was grown in suspension in wells of a 24 well plate, containing 1 ml of DMEM medium supplemented with 10% heat-inactivated fetal calf serum. After 2 h of growth, Trifluoperazine (or control vehicle) was added at various concentrations ranging from 10 to 40 μM for 20 min and the bacterial aggregates were visualized over time using a phase-contrast microscope.
N. meninigitidis 2C4.3 strain was grown in suspension in wells of a 24 well plate, containing 1 ml of DMEM medium supplemented with 10% heat-inactivated fetal calf serum. After 2 h of growth, various concentrations (0.5 to 80 μM) of phenothiazine-derivative compounds or control vehicle (PBS or DMSO) were added to the wells for 30 min and the bacterial aggregates were visualized using a phase-contrast microscope.
Were tested phenothiazine-derivative compounds of: • the Piperazine group: Trifluoperazine (Sigma #T8516), Fluphenazine (Sigma #F4765), Prochlorperazine (Sigma #P9178) Perphenazine (Sigma #P6402); • the Piperidine group: Thioridazine (Sigma #T9025) and Mesoridazin (Sigma #M4068); • the Aliphatic group: Chlorpromazine (Sigma #C8138), Promazine (Sigma #P6656), Triflupromazine (Sigma #1686003) and levomepromazine (Sigma #L0500000).

Structures are written as SMILES.

Take `CO/N=C(\C(=O)N[C@@H]1C(=O)N2C(C(=O)O)=C(COC(C)=O)CS[C@H]12)c1csc(N)n1` [Cefotaxim]: the “dispersion of microcolonies at the endothelial cell surface” value in assay [1] is listed as “poorly induced the dispersion”. In addition, in assay [2], the “increase of inflammatory response” value came out at 2 fold. In assay [3] (Cefotaxim 20 μg/ml, 20 minutes), the “dispersion of bacterial aggregates formed in suspension” value is recorded as “did not significantly induce the dispersion”.

In the case of `CN(C)CCCN1c2ccccc2Sc2ccc(Cl)cc21` [Chlorpromazine], in assay [3], the “effect on dispersion of meningococcal aggregates (in words)” value (“effect on dispersion” below) is “no effects” and the “Concentration promoting efficient meningococcal dispersal (~80%)” value is reported as “No effect”. Turning to `OCCN1CCN(CCCN2c3ccccc3Sc3ccc(C(F)(F)F)cc32)CC1` [Fluphenazine], the EC80 in assay [3] was 40 µM.

As for `COc1ccc2c(c1)N(C[C@H](C)CN(C)C)c1ccccc1S2` [Levomepromazine], in assay [3], the “effect on dispersion” value was “no effects” and the “Concentration promoting efficient meningococcal dispersal (~80%)” value is on record as “No effect”. Consider `CN1CCCCC1CCN1c2ccccc2Sc2ccc([S+](C)[O-])cc21` (stereo not shown) [Mesoridazine], for which the EC80 in assay [3] stood at 6 µM. Turning to `OCCN1CCN(CCCN2c3ccccc3Sc3ccc(Cl)cc32)CC1` [Perphenazine], in assay [3], the EC80 turned out to be 40 µM. Consider `CN1CCN(CCCN2c3ccccc3Sc3ccc(Cl)cc32)CC1` [Prochlorperazine], for which, in assay [3], the EC80 was found to be 30 µM. For `CN(C)CCCN1c2ccccc2Sc2ccccc21` [Promazine], in assay [3], the “effect on dispersion” value was “inhibited bacterial aggregation with better efficacy than Trifluoperazine” and the EC80 amounted to 10 µM. Regarding `CSc1ccc2c(c1)N(CCC1CCCCN1C)c1ccccc1S2` (stereo not shown) [Thioridazine], the EC80 in assay [3] was 4 µM. `CN(C)CCCN1c2ccccc2Sc2ccc(C(F)(F)F)cc21` [Triflupromazine]: in assay [3], the “effect on dispersion” value is on record as “no effects” and the “Concentration promoting efficient meningococcal dispersal (~80%)” value was “No effect”.
